ChEMBL document CHEMBL5390254, “Discovery and Optimization of Novel hDHODH Inhibitors for the Treatment of Inflammatory Bowel Disease” (J Med Chem, 2023)
Each block holds one molecule with its values, some of them ahead of it. Activity calls are given as the source filed them. The rule behind the calls is not given here.

Tests used:
[1] = tested on: Mus musculus; experiment: Anti-inflammatory activity against DSS-induced acute ulcerative colitis in C57BL/6 mouse model assessed as decrease in IL-6 mRNA expression level in colon at 40 mg/kg, po QD for 6 days by RT-PCR analysis; type: functional, organism-based; settings: time 6.0 day
[2] = tested on: Mus musculus; experiment: Anti-inflammatory activity against DSS-induced acute ulcerative colitis in C57BL/6 mouse model assessed as decrease in IL-17 production in colon at 40 mg/kg, po QD for 6 days by ELISA; type: functional; settings: time 6.0 day
[3] = tested on: Mus musculus; experiment: Anti-inflammatory activity against DSS-induced acute ulcerative colitis in C57BL/6 mouse model assessed as decrease in body weight loss at 80 mg/kg, po QD for 6 days (Rvb= -13.4%); type: functional; set-up: scale not given: the % may be the effect or the level left; settings: time 6 day
[4] = tested on: Mus musculus; experiment: Anti-inflammatory activity against DSS-induced acute ulcerative colitis in C57BL/6 mouse model assessed as decrease in IL-1beta mRNA expression level in colon at 40 mg/kg, po QD for 6 days by RT-PCR analysis; type: functional, organism-based; settings: time 6.0 day
[5] = tested on: Mus musculus; experiment: Anti-inflammatory activity against DSS-induced acute ulcerative colitis in C57BL/6 mouse model assessed as decrease in IL-6 production in colon at 40 mg/kg, po QD for 6 days by ELISA; type: functional; settings: time 6.0 day
[6] = tested on: Mus musculus; experiment: Anti-inflammatory activity against DSS-induced acute ulcerative colitis in C57BL/6 mouse model assessed as decrease in colon tissue damage score at 40 mg/kg, po QD for 6 days relative to DSS group; type: functional; set-up: scale not given: the % may be the effect or the level left; settings: time 6 day
[7] = tested on: Mus musculus; experiment: Anti-inflammatory activity against DSS-induced acute ulcerative colitis in C57BL/6 mouse model assessed as decrease in colon length shortening at 40 mg/kg, po QD for 6 days (Rvb= 5.5cm); type: functional; settings: time 6 day
[8] = tested on: Mus musculus; experiment: Anti-inflammatory activity against DSS-induced acute ulcerative colitis in C57BL/6 mouse model assessed as increase in colon length at 80 mg/kg, po QD for 6 days (Rvb= 5.3cm); type: functional; settings: time 6 day
[9] = tested on: Mus musculus; experiment: Anti-inflammatory activity against DSS-induced acute ulcerative colitis in C57BL/6 mouse model assessed as decrease in IL-17 mRNA expression level in colon at 40 mg/kg, po QD for 6 days by RT-PCR analysis; type: functional, organism-based; settings: time 6.0 day
[10] = tested on: Mus musculus; experiment: Anti-inflammatory activity against DSS-induced acute ulcerative colitis in C57BL/6 mouse model assessed as decrease in IL-1beta production in colon at 40 mg/kg, po QD for 6 days by ELISA; type: functional; settings: time 6.0 day
[11] = Apparent oral clearance in Han Wistar rat at 5 mg/kg,po and measured upto 24 hrs by LC-MS analysis; type: ADME, organism-based; settings: in vivo
[12] = tested on: Mus musculus; experiment: Anti-inflammatory activity against DSS-induced acute ulcerative colitis in C57BL/6 mouse model assessed as decrease in IL-1beta mRNA expression level in colon at 100 mg/kg, po QD for 6 days by RT-PCR analysis; type: functional, organism-based; settings: time 6.0 day
[13] = tested on: Mus musculus; experiment: Anti-inflammatory activity against DSS-induced acute ulcerative colitis in C57BL/6 mouse model assessed as decrease in IL-17 production in colon at 100 mg/kg, po QD for 6 days by ELISA; type: functional, organism-based; settings: time 6.0 day
[14] = tested on: Mus musculus; experiment: Anti-inflammatory activity against DSS-induced acute ulcerative colitis in C57BL/6 mouse model assessed as decrease in IL-6 mRNA expression level in colon at 100 mg/kg, po QD for 6 days by RT-PCR analysis; type: functional, organism-based; settings: time 6.0 day
[15] = Terminal half life in Han Wistar rat at 5 mg/kg,po and measured upto 24 hrs by LC-MS analysis; type: ADME, organism-based; settings: in vivo, read-out: beta t1/2 (converted)
[16] = tested on: Mus musculus; experiment: Anti-inflammatory activity against DSS-induced acute ulcerative colitis in C57BL/6 mouse model assessed as decrease in IL-17 mRNA expression level in colon at 100 mg/kg, po QD for 6 days by RT-PCR analysis; type: functional, organism-based; settings: time 6.0 day
[17] = tested on: Mus musculus; experiment: Anti-inflammatory activity against DSS-induced acute ulcerative colitis in C57BL/6 mouse model assessed as decrease in IL-1beta production in colon at 100 mg/kg, po QD for 6 days by ELISA; type: functional, organism-based; settings: time 6.0 day
[18] = Apparent volume of distribution during terminal phase in Sprague-Dawley rat at 15 mg/kg, po and measured upto 48 hrs by LC-MS/MS analysis; type: ADME, organism-based; settings: in vivo, read-out: Vz/F
[19] = tested on: Mus musculus; experiment: Anti-inflammatory activity against DSS-induced acute ulcerative colitis in C57BL/6 mouse model assessed as decrease in colon tissue damage score at 100 mg/kg, po QD for 6 days relative to DSS group; type: functional; set-up: scale not given: the % may be the effect or the level left; settings: time 6 day
[20] = molecular target: Dihydroorotate dehydrogenase (quinone), mitochondrial (Homo sapiens) (UniProt Q02127); settings: dose 10.0 µM
Chain of Dihydroorotate dehydrogenase (quinone), mitochondrial (Homo sapiens) (Q02127 whole entry): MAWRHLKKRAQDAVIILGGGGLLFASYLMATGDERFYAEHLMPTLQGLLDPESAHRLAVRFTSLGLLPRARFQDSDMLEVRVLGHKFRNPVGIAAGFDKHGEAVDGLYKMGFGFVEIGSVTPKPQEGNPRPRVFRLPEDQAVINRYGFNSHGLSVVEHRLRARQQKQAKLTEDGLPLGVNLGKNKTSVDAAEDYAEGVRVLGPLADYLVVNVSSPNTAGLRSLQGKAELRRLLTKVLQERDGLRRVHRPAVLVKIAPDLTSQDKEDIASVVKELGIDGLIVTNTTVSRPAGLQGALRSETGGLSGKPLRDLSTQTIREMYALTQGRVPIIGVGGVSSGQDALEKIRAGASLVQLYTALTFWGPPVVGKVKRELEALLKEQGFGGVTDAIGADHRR
Description: Binding affinity to human DHODH assessed as change in melting temperature at 10 uM by thermal shift based DSF assay

[21] = tested on: Mus musculus; experiment: Anti-inflammatory activity against DSS-induced acute ulcerative colitis in C57BL/6 mouse model assessed as decrease in IL-6 production in colon at 100 mg/kg, po QD for 6 days by ELISA; type: functional, organism-based; settings: time 6.0 day
[22] = tested on: Mus musculus; experiment: Anti-inflammatory activity against DSS-induced acute ulcerative colitis in C57BL/6 mouse model assessed as decrease in colon length shortening at 100 mg/kg, po QD for 6 days (Rvb= 5.5cm); type: functional; settings: time 6 day
[23] = Oral bioavailability in Han Wistar rat at 5 mg/kg and measured upto 24 hrs by LC-MS analysis; type: ADME, organism-based; settings: in vivo

Compound: C[C@@H]1CCN(C(=O)CC#N)C[C@@H]1N(C)c1ncnc2[nH]ccc12 [TOFACITINIB]
- Activity [1]: Active
- Activity [2]: Active
- Activity [3]: -3.9%
- Activity [4]: Active
- Activity [5]: Active
- Activity [6]: 45.45%
- Activity [7]: 6.3 cm
- Activity [8]: 6.7 cm
- Activity [9]: Active
- Activity [10]: Active

- CL/F [11]: 220 mL/min/kg
- half-life [15]: 9.1 h
- Vd/F [18]: 0.02 L/kg
- ΔTm [20]: 9.8 °C
- bioavailability [23]: 73.8%
Compound: COc1cccc(-c2ccc(NC(=O)C3=C(C(=O)O)CCC3)c(F)c2)c1 [VIDOFLUDIMUS]
- Activity [12]: Active
- Activity [13]: Active
- Activity [14]: Active
- Activity [16]: Active
- Activity [17]: Active
- Activity [19]: 22.73%
- Activity [21]: Active
- Activity [22]: 6.4 cm
